Assay [1] concerns MIA PaCa-2. As to the kind of experiment: Antiausteritic activity against human MIAPaCa2 cells in nutrient-deprived medium measured after 24 hrs by WST8 assay. It is filed as functional.
Assay [2] in a line: Antiausteritic activity against human KLM1 cells in nutrient-deprived medium measured after 24 hrs by WST8 assay. It is filed as functional.
Assay [3] has as its system PSN1. As to the kind of experiment: Antiausteritic activity against human PSN1 cells in nutrient-deprived medium measured after 24 hrs by WST8 assay. It is filed as functional.
In assay [4] the test system is PANC-1. As to the kind of experiment: Antiausteritic activity against human PANC1 cells in nutrient-deprived medium measured after 24 hrs by WST8 assay. It is filed as functional.
In assay [5] the test system is CAPAN-1. Description: Antiausteritic activity against human Capan1 cells in nutrient-deprived medium measured after 24 hrs by WST8 assay. It is filed as functional.
In assay [6] the test system is PANC-1. As to the kind of experiment: Antiausteritic activity against human PANC1 cells assessed as reduction in cell migration at 50 uM under nutrient-deprived medium measured at 5 mins interval for 30 mins by live cell imaging analysis. It is filed as functional, cell-based.
For assay [7], the system named is PANC-1. As to the kind of experiment: Induction of morphological changes in human PANC1 cells assessed as increase in dead cells after 24 hrs by ethidium bromide/acridine orange staining based inverted microscopic analysis. It is filed as functional, cell-based.
The test system of assay [8] is PANC-1. As to the kind of experiment: Antiausteritic activity against human PANC1 cells assessed as cell death at 50 uM under nutrient-deprived medium measured at 5 mins interval for 8 hrs by live cell imaging analysis. It is filed as functional, cell-based.
The target of assay [9] is RAC-alpha serine/threonine-protein kinase (Homo sapiens) (UniProt P31749). Description: Inhibition of AKT in human PANC1 cells assessed as reduction in mTOR phosphorylation at Ser2448 residue at 50 uM measured after 3 hrs under nutrient deprived condition by Western blot analysis. It is filed as cell-based.
Assay [10] concerns PANC-1. Description: Antiausteritic activity against human PANC1 cells assessed as decrease in cell index under nutrient-deprived medium measured at 15 secs interval for 24 hrs by real time cell analysis. It is filed as functional, cell-based.
Assay [11] concerns PANC-1. As to the kind of experiment: Antiausteritic activity against human PANC1 cells assessed as decrease in cell index by measuring cell death at 50 uM under nutrient-deprived medium measured at 15 secs interval for 4 hrs by real time cell analysis. The class given is functional, cell-based.
Assay [12] deals with RAC-alpha serine/threonine-protein kinase (Homo sapiens) (UniProt P31749). Description: Inhibition of AKT in human PANC1 cells assessed as reduction in mTOR phosphorylation at Ser2448 residue measured after 3 hrs under nutrient deprived condition by Western blot analysis. It is filed as cell-based.
For assay [13], the system named is PANC-1. As to the kind of experiment: Induction of morphological changes in human PANC1 cells assessed as increase in dead cells after 24 hrs by Hoechst 33342/propidium iodide staining based inverted microscopic analysis. The class given is functional, cell-based.
Assay [14] relates to PANC-1. As to the kind of experiment: Antiausteritic activity against human PANC1 cells assessed as normalized cell index by measuring cell growth inhibition at 25 uM under nutrient-deprived medium measured at 15 secs interval for 24 hrs by real time cell analysis. The class given is functional, cell-based.
Assay [15] concerns PANC-1. Description: Induction of autophagy in human PANC1 cells assessed as increase in LC3-1 expression after 3 hrs under nutrient deprived medium by Western blot analysis. It is filed as functional, cell-based.
Assay [16] relates to PANC-1. Description: Induction of morphological changes in human PANC1 cells assessed as nuclear fragmentation at 25 to 50 uM after 24 hrs by Hoechst 33342/propidium iodide staining based inverted microscopic analysis. The class given is functional, cell-based.
Assay [17] relates to PANC-1. Description: Induction of autophagy in human PANC1 cells assessed as increase in LC3-2 expression after 3 hrs under nutrient deprived medium by Western blot analysis. It is filed as functional, cell-based.
In assay [18] the target is RAC-alpha serine/threonine-protein kinase (Homo sapiens) (UniProt P31749). As to the kind of experiment: Inhibition of AKT phosphorylation at Ser473 residues in human PANC1 cells at 50 uM measured within 3 hrs under nutrient deprived condition by Western blot analysis. It is filed as cell-based.
In assay [19] the test system is PANC-1. As to the kind of experiment: Antiausteritic activity against human PANC1 cells assessed as alterations in cell morphology at 50 uM under nutrient-deprived medium measured at 5 mins interval for 2 hrs by live cell imaging analysis. The class given is functional, cell-based.

Each structure is given as a SMILES string. Calls of active or inactive are those of the source. The calls are words filed in the database; no cut-off is given here.

RAC-alpha serine/threonine-protein kinase (Homo sapiens), sequence (P31749 whole entry): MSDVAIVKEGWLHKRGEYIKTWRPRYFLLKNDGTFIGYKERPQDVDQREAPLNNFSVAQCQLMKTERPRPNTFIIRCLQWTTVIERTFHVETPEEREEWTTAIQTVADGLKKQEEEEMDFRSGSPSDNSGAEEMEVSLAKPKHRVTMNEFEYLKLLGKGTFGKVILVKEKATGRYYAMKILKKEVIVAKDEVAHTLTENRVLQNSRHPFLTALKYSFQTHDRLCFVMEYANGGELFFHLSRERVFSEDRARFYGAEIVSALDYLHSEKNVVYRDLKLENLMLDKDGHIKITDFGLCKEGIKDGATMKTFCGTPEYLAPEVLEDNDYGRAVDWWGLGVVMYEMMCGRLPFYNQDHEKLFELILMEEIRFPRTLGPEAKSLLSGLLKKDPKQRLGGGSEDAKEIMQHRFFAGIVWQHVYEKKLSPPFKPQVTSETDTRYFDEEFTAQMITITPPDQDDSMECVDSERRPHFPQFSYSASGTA

For the molecule `COc1cc(C[C@H]2C(=O)OC[C@@H]2Cc2ccc(OC)c(OC)c2)ccc1O` [ARCTIGENIN], the PC50 in assay [1] turned out to be 1.9 µM; in [2], 0.8 µM; in assay [3] it was 0.7 µM; in assay [4] it was 0.5 µM; in [5] it was 1.2 µM.
In the same order, the values of `CC1=C[C@@H]2[C@@H](CC1)[C@](C)(O)CC[C@H]2C(C)C` are 49.1 µM, 69.7 µM, greater than 100 µM, 46 µM and greater than 100 µM.
For `CC1=C[C@@H]2[C@@H](CC1=O)[C@@](C)(O)CC[C@H]2C(C)C` the same measures were greater than 100 µM, greater than 100 µM, greater than 100 µM, greater than 100 µM and greater than 100 µM.
For `CC1=C[C@@H]2[C@@H](CC1)[C@@](C)(O)CC[C@H]2C(C)C` [T-CADINOL], the outcome in assay [6], in assay [8], in assay [11], in assay [14], in assay [16] and in assay [19] was Active. Further, the Activity entry in [7], in [10], in assay [13], in assay [15] and in assay [17] was “Dose-dependent effect” throughout. In [2], the PC50 is 45.1 µM. Also, the inhibition in assay [9] is 100%; in assay [12], “Dose-dependent effect”. The inhibition entry in assay [18] is “Active”.
On to `CC(C)[C@@H]1CC[C@@](C)(O)[C@@H]2CCC(CO)=C[C@H]21`, for which the PC50 in assay [1] is greater than 100 µM; in assay [2] it was 95.3 µM; in [3], greater than 100 µM; in [4], greater than 100 µM; in [5], greater than 100 µM.
As to `CC(=O)OCC1=C[C@@H]2[C@@H](CC1)[C@@](C)(O)CC[C@H]2C(C)C`, the PC50 is 35.7 µM in assay [1], 69 µM in assay [2], greater than 100 µM in assay [3] and greater than 100 µM in [5].
As for `CC(C)[C@@H]1CC[C@](C)(O)[C@@H]2CCC(CO)=C[C@H]21`, the PC50 in [1] was 29.8 µM; in assay [2], 77.2 µM; in assay [3] it was 50.6 µM; in [4], 82.1 µM; in [5], greater than 100 µM.
For `O=C1OC[C@H](Cc2ccc3c(c2)OCO3)[C@H]1Cc1ccc2c(c1)OCO2` [HINOKININ] the same measures were 21.3 µM, 92.5 µM, 60.1 µM, 64.1 µM and 50.1 µM.
In the same order, the values of `C/C1=C/C(=O)CC[C@@](C)(O)CC[C@@H](C(C)C)C1=O` are greater than 100 µM, 98.1 µM, 67.7 µM, greater than 100 µM and greater than 100 µM.

These data come from ChEMBL document CHEMBL4043254, “Discovery of potential antiausterity agents from the Japanese cypress Chamaecyparis obtusa” (2017).
